ChEMBL document CHEMBL5230122, “Natural products and other inhibitors of F1FO ATP synthase” (Eur J Med Chem, 2020)

What was measured:
[1] = Non-competitive inhibition of bovine heart mitochondrial F0F1-ATP synthase incubated for 25 mins by ATPase assay; type: mitochondria, Bos taurus, Mitochondria
HeLa S3 = test: Anticancer activity against human HeLa S3 cells assessed as reduction in cell viability incubated for 48 hrs by WST-8 assay; type: functional, cell-based; conditions: HeLa S3, 48 h
[2] = Anticancer activity against rat Ad12-3Y1-Z13 cells assessed as reduction in cell viability incubated for 72 hrs by MTT assay; type: functional, cell-based; conditions: Ad12-3Y1-Z13, 72 h
[3] = Anticancer activity against rat E1A-3Y1-2 cells assessed as reduction in cell viability incubated for 72 hrs by MTT assay; type: functional, cell-based; conditions: E1A-3Y1-2, 72 h
[4] = Anticancer activity against rat Ad12-3Y1-Z19 cells assessed as reduction in cell viability incubated for 72 hrs by MTT assay; type: functional, cell-based; conditions: Ad12-3Y1-Z19, 72 h
[5] = Anticancer activity against rat Ad12-3Y1-Z11 cells assessed as reduction in cell viability incubated for 72 hrs by MTT assay; type: functional, cell-based; conditions: Ad12-3Y1-Z11, 72 h
[6] = Anticancer activity against rat Ad12-3Y1-W5 cells assessed as reduction in cell viability incubated for 72 hrs by MTT assay; type: functional, cell-based; conditions: Ad12-3Y1-W5, 72 h
[7] = Anticancer activity against rat E1A-3Y1-3 cells assessed as reduction in cell viability incubated for 72 hrs by MTT assay; type: functional, cell-based; conditions: E1A-3Y1-3, 72 h
[8] = Anticancer activity against rat E1A-3Y1-1 cells assessed as reduction in cell viability incubated for 72 hrs by MTT assay; type: functional, cell-based; conditions: E1A-3Y1-1, 72 h
[9] = Inhibition of bovine heart mitochondrial F0F1-ATP synthase for 1 hr by microplate reader analysis; type: mitochondria, Bos taurus, Mitochondria
HepG2 = test: Cytotoxicity against human HepG2 cells assessed as reduction in glucose induced mitochondrial toxicity by measuring ATP depletion incubated for 24 hrs by CellTiter-Glo luminescent cell viability assay; type: functional, cell-based; conditions: HepG2, 24 h
[10] = Inhibition of thrombin-induced hyperpermeability of human HMEC-1 cells at 10 uM preincubated for 20 mins followed by thrombin addition and measured for 60 mins by transwell assay; type: functional; conditions: HMEC-1, 1.333 h, time 80 min
[11] = Inhibition of bovine heart mitochondrial F0F1-ATP synthase assessed as reduction in NADH oxidation for 40 mins by MitoTox Complex V OXPHOS activity microplate assay; type: mitochondria, Bos taurus, Mitochondria
MCF7 [12] = test: Antiproliferative activity against human MCF7 assessed as inhibition of cell viability incubated for 72 hrs by CCK-8 assay; type: functional, cell-based; conditions: MCF7, 72 h
T47D = test: Antiproliferative activity against human T47D assessed as inhibition of cell viability incubated for 72 hrs by CCK-8 assay; type: functional, cell-based
MCF7 [13] = test: Anticancer activity against human MCF7 cells assessed as reduction in cell viability incubated for 72 hrs by CCK-8 assay; type: functional, cell-based; conditions: MCF7, 72 h
U-937 = test: Anticancer activity against human U-937 cells assessed as reduction in cell viability incubated for 72 hrs by CellTiter-Glo luminescent cell viability assay; type: functional, cell-based; conditions: U-937, 72 h
KB 3-1 = test: Anticancer activity against human KB-3-1 cells assessed as reduction in cell viability incubated for 72 hrs by CellTiter-Glo luminescent cell viability assay; type: functional, cell-based; conditions: KB 3-1, 72 h
HL-60 = test: Anticancer activity against human HL-60 cells assessed as reduction in cell viability incubated for 72 hrs by CCK-8 assay; type: functional, cell-based; conditions: HL-60, 72 h
SW480 = test: Anticancer activity against human SW480 cells assessed as reduction in cell viability incubated for 72 hrs by CellTiter-Glo luminescent cell viability assay; type: functional, cell-based; conditions: SW480, 72 h
LoVo = test: Anticancer activity against human LoVo cells assessed as reduction in cell viability incubated for 72 hrs by CCK-8 assay; type: functional, cell-based
SK-OV-3 = test: Anticancer activity against human SK-OV-3 cells assessed as reduction in cell viability incubated for 72 hrs by CellTiter-Glo luminescent cell viability assay; type: functional, cell-based; conditions: SK-OV-3, 72 h
Jurkat = test: Anticancer activity against human Jurkat cells assessed as reduction in cell viability incubated for 72 hrs by CellTiter-Glo luminescent cell viability assay; type: functional, cell-based
NCI-H1299 = test: Anticancer activity against human NCI-H1299 cells assessed as reduction in cell viability incubated for 72 hrs by CCK-8 assay; type: functional, cell-based; conditions: NCI-H1299, 72 h
HCT-116 = test: Anticancer activity against human HCT-116 cells assessed as reduction in cell viability incubated for 72 hrs by CellTiter-Glo luminescent cell viability assay; type: functional, cell-based; conditions: HCT-116, 72 h
A549 = test: Antiproliferative activity against human A549 cells assessed as reduction in cell proliferation incubated for 48 hrs by xCELLigence RTCA system analysis; type: functional, cell-based; conditions: A549, 48 h
CL1-0 = test: Antiproliferative activity against human CL1-0 cells assessed as reduction in cell proliferation incubated for 48 hrs by xCELLigence RTCA system analysis; type: functional, cell-based; conditions: CL1-0, 48 h
Rattus norvegicus = species: Rattus norvegicus; test: Inhibition of rat liver mitochondrial F0F1-ATP synthase hydrolytic activity at 5 uM in presence of MgATP; conditions: Mitochondria
PC-12 [14] = test: Cytoprotective activity against glutamate induced-toxicity in rat PC-12 cells assessed as reduction in cell death for 24 hrs by MTT assay; type: functional, cell-based; conditions: PC-12, 24 h
PC-12 [15] = test: Cytoprotective activity against KCN induced-toxicity in rat PC-12 cells assessed as reduction in cell death for 24 hrs by MTT assay; type: functional, cell-based; conditions: PC-12, 24 h
[16] = Neuroprotective activity against amyloid beta induced cell death in rat Primary hippocampal neuron cells assessed as increase in cell viability incubated for 2 days by lactate dehydrogenase release assay; type: functional, cell-based; conditions: Hippocampal neurone, 48 h
Cortical neurone = test: Neuroprotective activity against rat Primary cortical neuron cells assessed as rescue of cell death incubated for 2 days by fluorescent live-dead assay; type: functional, cell-based; conditions: 48 h
[17] = Binding affinity to mitochondrial ATP5A in mouse HT-22 cells measured after 15 mins by LC/MS/MS based pull-down assay; type: cell-based
[18] = Inhibition of bovine heart mitochondria ATP synthase in presence of PEP, PK, LDH and NADH for 1 hrs by MitoTox microplate assay; design: species or system Bos taurus
CAKI-1 = test: Antiproliferative activity against human CAKI-1 cells assessed as reduction in cell proliferation incubated for 96 hrs by Cell TiterGlo assay; type: functional, cell-based; conditions: CAKI-1, 96 h

Question: Which IC50 [1] does the source give for `NCCc1ccc(Oc2ccc(O)cc2)c(I)c1` here?
Answer: 27.5 µM

Question: With `CC[C@H](C)[C@@H]1NC(=O)[C@H](NC(=O)[C@H](C)NC(=S)[C@H](C)NC(=S)[C@H](C)NC(=S)[C@H](C)NC(=S)[C@H](CCSC)NC(=S)[C@@H](NC(=O)C(C)=O)C(C)C)CS/C=C\NC(=O)[C@H](C(O)c2cn(C)c[n+]2C)NC(=O)[C@H](CC(C)C)NC(=O)[C@H](C)NC1=O` (stereo not given in full) as the compound, how does the IC50 (HeLa S3) read?
Answer: 0.36 µM

Question: What about the IC50 [2] of the same compound?
Answer: 0.016 µM

Question: And the IC50 [3]?
Answer: 0.021 µM

Question: And the IC50 [4]?
Answer: 0.016 µM

Question: And the IC50 [5]?
Answer: 0.016 µM

Question: And the IC50 [6]?
Answer: 0.016 µM

Question: What about the IC50 [7] of the same compound?
Answer: 0.021 µM

Question: What about the IC50 [8] of the same compound?
Answer: 0.021 µM

Question: For `Cc1oncc1C(=O)Nc1ccc(C(F)(F)F)cc1` [LEFLUNOMIDE], which IC50 [9] is on record?
Answer: 35 µM

Question: What about the IC50 (HepG2) of the same compound?
Answer: 110 µM

Question: Which results are given for `C=C1CC[C@@]2(OC1)O[C@H]1C[C@H]3[C@@H]4CC=C5C[C@H](O)C[C@H](O[C@@H]6OC[C@H](O)[C@H](O)[C@H]6O[C@@H]6O[C@@H](C)[C@H](O)[C@@H](O)[C@H]6O)[C@]5(C)[C@H]4CC[C@]3(C)[C@H]1[C@@H]2C`?
Answer: inhibition at 10 µM [10]: 41.9%; Ki [11]: 10 µM

Question: Which IC50 (MCF7 [12]) does the source give for `CCC(C)N(C)C(=O)c1cc2ccccc2c(-c2ccccc2Cl)n1` (stereo not given) [PK-11195] here?
Answer: 0.0054 µM

Question: What about the IC50 (T47D) of the same compound?
Answer: 0.006 µM

Question: With `CC(=O)C(=O)N[C@H](C(=S)N[C@@H](CC[S+](C)[O-])C(=S)N[C@@H](C)C(=O)N[C@@H](C)C(=S)N[C@@H](C)C(=S)N[C@@H](C)C(=O)N[C@H]1C(=O)N[C@@H](C(C)C)C(=O)N[C@@H](C)C(=O)N[C@@H](Cc2ccccc2)C(=O)N[C@@H](C(O)c2cn(C)c[n+]2C)C(=O)N/C=C\SC1C)C(C)C` (stereo not given in full) as the compound, how does the IC50 (MCF7 [13]) read?
Answer: 0.83 µM

Question: What about the IC50 (U-937) of the same compound?
Answer: 16.9 µM

Question: What about the IC50 (KB 3-1) of the same compound?
Answer: 4.49 µM

Question: And the IC50 (HL-60)?
Answer: 1.47 µM

Question: What about the IC50 (SW480) of the same compound?
Answer: 12.2 µM

Question: And the IC50 (LoVo)?
Answer: 1.18 µM

Question: And the IC50 (SK-OV-3)?
Answer: 20.9 µM

Question: What about the IC50 (Jurkat) of the same compound?
Answer: 5.28 µM

Question: And the IC50 (NCI-H1299)?
Answer: 5.02 µM

Question: What about the IC50 (HCT-116) of the same compound?
Answer: 0.51 µM

Question: Which IC50 (A549) does the source give for `COc1cc(=O)oc(/C=C/C=C/C=C/C(C)=C/[C@]2(C)O[C@H](C)[C@](C)(O)[C@H]2O)c1C` here?
Answer: 1.5 µM

Question: What about the IC50 (CL1-0) of the same compound?
Answer: 1.5 µM

Question: Which inhibition (Rattus norvegicus) does the source give for `CCOC(=O)C1=C(C)NC2=C(C=Nc3ccccc3N2)[C@@H]1c1ccccc1[N+](=O)[O-]` here?
Answer: 67%

Question: What about the IC50 (PC-12 [14]) of the same compound?
Answer: 0.029 µM

Question: What about the IC50 (PC-12 [15]) of the same compound?
Answer: 0.008 µM

Question: With `COc1cccc(/C=N/N(C(=O)C(F)(F)F)c2ccc(C)cc2C)c1` [J147] as the compound, how does the EC50 [16] read?
Answer: 0.2 µM

Question: And the EC50 (Cortical neurone)?
Answer: 0.025 µM

Question: And the EC50 [17]?
Answer: 0.02 µM

Question: For `CNC(=O)c1cc(Oc2ccc(NC(=O)Nc3ccc(Cl)c(C(F)(F)F)c3)cc2)ccn1` [SORAFENIB], which IC50 [18] is on record?
Answer: 2.5 µM

Question: Which IC50 (CAKI-1) does the source give for `Nc1ncnc2c1nc(Cl)n2[C@@H]1O[C@H](CO)[C@@H](O)[C@H]1O` [8-CHLOROADENOSINE] here?
Answer: 2 µM
